The values that follow come from patent publication US8188085B2, “Antifungal agents” (Merck Sharp & Dohme Corp., priority 2008, dated 2012).

Molecules are shown by their SMILES.

In general, IC50 refers to the concentration that inhibits the measured activity by half.

Chain of glucan synthase (GS) prepared from Candida albicans MY1055 (O13428 1-1897): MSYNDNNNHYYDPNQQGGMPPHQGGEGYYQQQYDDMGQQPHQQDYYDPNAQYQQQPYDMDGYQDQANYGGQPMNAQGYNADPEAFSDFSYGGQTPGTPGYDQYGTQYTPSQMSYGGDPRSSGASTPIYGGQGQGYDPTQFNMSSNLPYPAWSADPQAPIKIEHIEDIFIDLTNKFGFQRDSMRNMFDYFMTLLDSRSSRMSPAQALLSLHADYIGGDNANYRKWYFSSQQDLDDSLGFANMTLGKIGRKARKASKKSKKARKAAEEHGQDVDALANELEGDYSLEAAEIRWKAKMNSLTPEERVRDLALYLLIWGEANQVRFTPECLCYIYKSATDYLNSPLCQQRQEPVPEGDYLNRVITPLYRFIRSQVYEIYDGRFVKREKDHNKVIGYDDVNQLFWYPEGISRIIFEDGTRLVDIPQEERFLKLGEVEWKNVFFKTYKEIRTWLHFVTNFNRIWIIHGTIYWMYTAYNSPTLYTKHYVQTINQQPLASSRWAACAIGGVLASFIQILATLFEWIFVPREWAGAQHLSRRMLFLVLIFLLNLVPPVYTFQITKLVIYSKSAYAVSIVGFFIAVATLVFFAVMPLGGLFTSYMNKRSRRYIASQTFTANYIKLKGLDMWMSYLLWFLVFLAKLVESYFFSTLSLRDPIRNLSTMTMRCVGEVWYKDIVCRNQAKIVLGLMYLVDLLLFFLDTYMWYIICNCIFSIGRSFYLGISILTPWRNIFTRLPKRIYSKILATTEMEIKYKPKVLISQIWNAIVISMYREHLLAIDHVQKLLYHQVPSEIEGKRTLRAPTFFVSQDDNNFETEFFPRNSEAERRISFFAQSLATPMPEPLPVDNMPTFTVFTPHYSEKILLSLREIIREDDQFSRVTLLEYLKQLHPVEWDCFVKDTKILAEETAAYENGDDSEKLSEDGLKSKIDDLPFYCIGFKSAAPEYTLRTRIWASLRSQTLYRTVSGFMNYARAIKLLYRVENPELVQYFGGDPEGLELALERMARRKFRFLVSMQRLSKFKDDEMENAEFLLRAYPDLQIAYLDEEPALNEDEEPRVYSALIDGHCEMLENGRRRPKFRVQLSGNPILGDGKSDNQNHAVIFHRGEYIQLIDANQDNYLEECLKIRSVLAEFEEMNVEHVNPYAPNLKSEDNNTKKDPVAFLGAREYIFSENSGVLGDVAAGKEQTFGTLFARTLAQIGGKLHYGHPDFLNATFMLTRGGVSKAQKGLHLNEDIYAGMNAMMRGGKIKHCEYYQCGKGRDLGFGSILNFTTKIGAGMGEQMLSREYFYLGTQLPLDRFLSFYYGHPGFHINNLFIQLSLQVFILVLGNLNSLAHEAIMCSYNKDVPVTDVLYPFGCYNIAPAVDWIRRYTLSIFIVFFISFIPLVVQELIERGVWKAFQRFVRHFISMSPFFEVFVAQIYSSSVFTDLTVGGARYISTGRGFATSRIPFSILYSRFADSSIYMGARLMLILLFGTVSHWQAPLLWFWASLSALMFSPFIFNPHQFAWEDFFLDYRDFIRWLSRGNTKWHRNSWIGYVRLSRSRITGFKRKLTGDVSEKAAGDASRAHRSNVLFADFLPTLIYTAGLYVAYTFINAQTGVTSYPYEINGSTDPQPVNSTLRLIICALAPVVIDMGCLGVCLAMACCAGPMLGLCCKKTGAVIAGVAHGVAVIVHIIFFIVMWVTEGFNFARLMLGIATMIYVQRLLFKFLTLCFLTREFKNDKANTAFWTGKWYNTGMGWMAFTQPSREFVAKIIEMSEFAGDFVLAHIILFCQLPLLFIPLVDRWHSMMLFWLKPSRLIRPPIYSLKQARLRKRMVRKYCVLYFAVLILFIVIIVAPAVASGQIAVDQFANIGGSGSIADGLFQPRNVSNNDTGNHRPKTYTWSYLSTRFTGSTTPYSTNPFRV

In this experiment the target is glucan synthase (GS) prepared from Candida albicans MY1055 (Candida albicans, UniProt O13428). The experiment is described as follows: Glucan synthase inhibition (polymerization assay, 96-well). In kind it is biochemical. The conditions noted are these: GS from C. albicans MY1055; 60 min incubation at 22° C.; read-out: Candida Albicans GS IC50 (converted). The gist of the method:
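Partially purified glucan synthase from C. albicans MY1055 membranes incorporated 0.5 mM ³H-UDPG with 25 μM GTP-γ-S, HEPES pH 7.5, over 60 min at 22 °C. TCA-precipitated glucan was counted by scintillation. IC50 (ng/mL) came from sigmoidal fits of duplicate 3-fold dilution series.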
`COC(=O)c1cnnn1[C@@H]1C[C@@]23COC[C@](C)([C@@H]2CC[C@H]2C3=CC[C@@]3(C)[C@H](C(=O)O)[C@@](C)([C@H](C)C(C)C)CC[C@]23C)[C@H]1OC[C@](C)(N)C(C)C` (single isomer, unassigned) [Example 289B]: the IC50 is 126 nM.
The value for `C=C(C)c1ncnn1[C@@H]1C[C@@]23COC[C@](C)([C@@H]2CC[C@H]2C3=CC[C@@]3(C)[C@H](C(=O)O)[C@@](C)([C@H](C)C(C)C)CC[C@]23C)[C@H]1OC[C@](C)(N)C(C)C` [Example 168, (1S,4aR,6aS,7R,8R,10aR,10bR,12aR,14R,15R)-15-[[(2R)-2-amino-2,3-dimethylbutyl]oxy]-8-[(1R)-1,2-dimethylpropyl]-14-[5-(1-methylethenyl)-1H-1,2,4-triazol-1-yl]-1,6,6a,7,8,9,10,10a,10b,11,12,12a-dodecahydro-1,6a,8,10a-tetramethyl-4H-1,4a-propano-2H-phenanthro[1,2-c]pyran-7-carboxylic acid] was 4.42 nM; that for `CC(C)[C@@H](C)[C@@]1(C)CC[C@]2(C)[C@H]3CC[C@@H]4[C@@]5(COC[C@@]4(C)[C@@H](OC[C@](C)(N)C(C)(C)C)[C@H](n4cnnc4)C5)C3=CC[C@@]2(C)[C@@H]1C(=O)O` [Example 1B, (1S,4aR,6aS,7R,8R,10aR,10bR,12aR,14R,15R)-15-[[(2R)-2-amino-2,3,3-trimethylbutyl]oxy]-8-[(1R)-1,2-dimethylpropyl]-14-(4H-1,2,4-triazol-4-yl)-1,6,6a,7,8,9,10,10a,10b,11,12,12a-dodecahydro-1,6a,8,10a-tetramethyl-4H-1,4a-propano-2H-phenanthro[1,2-c]pyran-7-carboxylic acid] was 42.9 nM.
With `CN[C@](C)(CO[C@H]1[C@H](n2cncn2)C[C@@]23COC[C@]1(C)[C@@H]2CC[C@H]1C3=CC[C@@]2(C)[C@H](C(=O)O)[C@@](C)([C@H](C)C(C)C)CC[C@]12C)C(C)C` [Example 3, (1S,4aR,6aS,7R,8R,10aR,10bR,12aR,14R,15R)-15-[[(2S)-2,3-dimethyl-2-(methylamino)butyl]oxy]-8-[(1R)-1,2-dimethylpropyl]-14-(1H-1,2,4-triazol-1-yl)-1,6,6a,7,8,9,10,10a,10b,11,12,12a-dodecahydro-1,6a,8,10a-tetramethyl-4H-1,4a-propano-2H-phenanthro[1,2-c]pyran-7-carboxylic acid], the IC50 was 26 nM.
The value for `CN[C@@](C)(CO[C@H]1[C@H](n2ncnc2C2=NCCCN2)C[C@@]23COC[C@]1(C)[C@@H]2CC[C@H]1C3=CC[C@@]2(C)[C@H](C(=O)O)[C@@](C)([C@H](C)C(C)C)CC[C@]12C)C(C)(C)C` [Example 136, (1S,4aR,6aS,7R,8R,10aR,10bR,12aR,14R,15R)-8-[(1R)-1,2-dimethylpropyl]-14-[5-(1,4,5,6-tetrahydro-2-pyrimidinyl)-1H-1,2,4-triazol-1-yl]-15-[[(2R)-2,3,3-trimethyl-2-(methylamino)butyl]oxy]-1,6,6a,7,8,9,10,10a,10b,11,12,12a-dodecahydro-1,6a,8,10a-tetramethyl-4H-1,4a-propano-2H-phenanthro[1,2-c]pyran-7-carboxylic acid] was 12 nM.
On to `CC(C)[C@@H](C)[C@@]1(C)CC[C@]2(C)[C@H]3CC[C@@H]4[C@@]5(COC[C@@]4(C)[C@@H](OC[C@](C)(N)C(C)(C)C)[C@H](n4ncnc4-c4ccc(O)nc4)C5)C3=CC[C@@]2(C)[C@@H]1C(=O)O` [Example 218, (1S,4aR,6aS,7R,8R,10aR,10bR,12aR,14R,15R)-15-[[(2R)-2-amino-2,3,3-trimethylbutyl]oxy]-8-[(1R)-1,2-dimethylpropyl]-14-[5-(6-hydroxy-3-pyridinyl)-1H-1,2,4-triazol-1-yl]-1,6,6a,7,8,9,10,10a,10b,11,12,12a-dodecahydro-1,6a,8,10a-tetramethyl-4H-1,4a-propano-2H-phenanthro[1,2-c]pyran-7-carboxylic acid], for which the IC50 is 1.07 nM.
With `CC(C)[C@@H](C)[C@@]1(C)CC[C@]2(C)[C@H]3CC[C@@H]4[C@@]5(COC[C@@]4(C)[C@@H](OC[C@@]4(C)CCCN4)[C@H](n4ncnc4-c4ccncc4)C5)C3=CC[C@@]2(C)[C@@H]1C(=O)O` [Example 307, (1S,4aR,6aS,7R,8R,10aR,10bR,12aR,14R,15R)-8-[(1R)-1,2-dimethylpropyl]-15-[[(2R)-2-methyl-2-pyrrolidinyl]methoxy]-14-[5-(4-pyridinyl)-1H-1,2,4-triazol-1-yl]-1,6,6a,7,8,9,10,10a,10b,11,12,12a-dodecahydro-1,6a,8,10a-tetramethyl-4H-1,4a-propano-2H-phenanthro[1,2-c]pyran-7-carboxylic acid] the figure was 5.6 nM.
In the case of `CC(C)[C@@H](C)[C@@]1(C)CC[C@]2(C)[C@H]3CC[C@@H]4[C@@]5(COC[C@@]4(C)[C@@H](OC[C@](C)(N)C(C)(C)C)[C@H](n4ncnc4-c4ccnc(N)c4)C5)C3=CC[C@@]2(C)[C@@H]1C(=O)O` [Example 214, (1S,4aR,6aS,7R,8R,10aR,10bR,12aR,14R,15R)-14-[5-(2-amino-4-pyridinyl)-1H-1,2,4-triazol-1-yl]-15-[[(2R)-2-amino-2,3,3-trimethylbutyl]oxy]-8-[(1R)-1,2-dimethylpropyl]-1,6,6a,7,8,9,10,10a,10b,11,12,12a-dodecahydro-1,6a,8,10a-tetramethyl-4H-1,4a-propano-2H-phenanthro[1,2-c]pyran-7-carboxylic acid], the half-inhibitory concentration (IC50) is 1.34 nM.
With `CC(C)[C@@H](C)[C@@]1(C)CC[C@]2(C)[C@H]3CC[C@@H]4[C@@]5(COC[C@@]4(C)[C@@H](OC[C@](C)(N)C(C)C)[C@H](n4ncnc4-n4cncn4)C5)C3=CC[C@@]2(C)[C@@H]1C(=O)O` [Example 138, (1S,4aR,6aS,7R,8R,10aR,10bR,12aR,14R,15R)-15-[[(2R)-2-amino-2,3-dimethylbutyl]oxy]-14-[1,5′-bi-1H-1,2,4-triazol]-1′-yl-8-[(1R)-1,2-dimethylpropyl]-1,6,6a,7,8,9,10,10a,10b,11,12,12a-dodecahydro-1,6a,8,10a-tetramethyl-4H-1,4a-propano-2H-phenanthro[1,2-c]pyran-7-carboxylic acid], the half-maximal inhibitory concentration (IC50) is 8.5 nM.
As to `CC(C)[C@@H](C)[C@@]1(C)CC[C@]2(C)[C@H]3CC[C@@H]4[C@@]5(COC[C@@]4(C)[C@@H](OC[C@](C)(N)C(C)C)[C@H](n4ncnc4C4=NCCN4)C5)C3=CC[C@@]2(C)[C@@H]1C(=O)O` [Example 128, (1S,4aR,6aS,7R,8R,10aR,10bR,12aR,14R,15R)-15-[[(2R)-2-amino-2,3-dimethylbutyl]oxy]-14-[5-(4,5-dihydro-1H-imidazol-2-yl)-1H-1,2,4-triazol-1-yl]-8-[(1R)-1,2-dimethylpropyl]-1,6,6a,7,8,9,10,10a,10b,11,12,12a-dodecahydro-1,6a,8,10a-tetramethyl-4H-1,4a-propano-2H-phenanthro[1,2-c]pyran-7-carboxylic acid], the IC50 is 8.49 nM.
The value for `CNC(=O)c1ncnn1[C@@H]1C[C@@]23COC[C@](C)([C@@H]2CC[C@H]2C3=CC[C@@]3(C)[C@H](C(=O)O)[C@@](C)([C@H](C)C(C)C)CC[C@]23C)[C@H]1OCC1(N)CCOCC1` [Example 112, (1S,4aR,6aS,7R,8R,10aR,10bR,12aR,14R,15R)-15-[(4-aminotetrahydro-2H-pyran-4-yl)methoxy]-8-[(1R)-1,2-dimethylpropyl]-14-[5-[(methylamino)carbonyl]-1H-1,2,4-triazol-1-yl]-1,6,6a,7,8,9,10,10a,10b,11,12,12a-dodecahydro-1,6a,8,10a-tetramethyl-4H-1,4a-propano-2H-phenanthro[1,2-c]pyran-7-carboxylic acid] was 9.86 nM; that for `CCCNS(=O)(=O)c1ncnn1[C@@H]1C[C@@]23COC[C@](C)([C@@H]2CC[C@H]2C3=CC[C@@]3(C)[C@H](C(=O)O)[C@@](C)([C@H](C)C(C)C)CC[C@]23C)[C@H]1OCC(N)(CC)CC` [Example 126, (1S,4aR,6aS,7R,8R,10aR,10bR,12aR,14R,15R)-15-(2-amino-2-ethylbutoxy)-8-[(1R)-1,2-dimethylpropyl]-14-[5-[(propylamino)sulfonyl]-1H-1,2,4-triazol-1-yl]-1,6,6a,7,8,9,10,10a,10b,11,12,12a-dodecahydro-1,6a,8,10a-tetramethyl-4H-1,4a-propano-2H-phenanthro[1,2-c]pyran-7-carboxylic acid] was 34.2 nM; that for `CC(C)[C@@H](C)[C@@]1(C)CC[C@]2(C)[C@H]3CC[C@@H]4[C@@]5(COC[C@@]4(C)[C@@H](OC[C@](C)(N)C(C)(C)C)[C@H](n4ncnc4C4CCOCC4)C5)C3=CC[C@@]2(C)[C@@H]1C(=O)O` [Example 285, (1S,4aR,6aS,7R,8R,10aR,10bR,12aR,14R,15R)-15-[[(2R)-2-amino-2,3,3-trimethylbutyl]oxy]-8-[(1R)-1,2-dimethylpropyl]-14-[5-(tetrahydro-2H-pyran-4-yl)-1H-1,2,4-triazol-1-yl]-1,6,6a,7,8,9,10,10a,10b,11,12,12a-dodecahydro-1,6a,8,10a-tetramethyl-4H-1,4a-propano-2H-phenanthro[1,2-c]pyran-7-carboxylic acid] was 4.07 nM.
For the compound `CC(C)[C@@H](C)[C@@]1(C)CC[C@]2(C)[C@H]3CC[C@@H]4[C@@]5(COC[C@@]4(C)[C@@H](OC[C@](C)(N)c4ccccc4)[C@H](n4ncnc4-c4ccncc4)C5)C3=CC[C@@]2(C)[C@@H]1C(=O)O` [Example 245, (1S,4aR,6aS,7R,8R,10aR,10bR,12aR,14R,15R)-15-[[(2R)-2-amino-2-phenylpropyl]oxy]-8-[(1R)-1,2-dimethylpropyl]-14-[5-(4-pyridinyl)-1H-1,2,4-triazol-1-yl]-1,6,6a,7,8,9,10,10a,10b,11,12,12a-dodecahydro-1,6a,8,10a-tetramethyl-4H-1,4a-propano-2H-phenanthro[1,2-c]pyran-7-carboxylic acid], the IC50 is 8 nM.
